Data reported in US20250134902A1, “DRUG REPURPOSING FOR DELAYED TREATMENT OF ISCHEMIC STROKE” (UNIVESRITY OF NORTH TEXAS HEALTH SCIENCE CENTER, priority 2022, published 2025).

Columns and labels:
[1] = Maximum tolerated dose, oral gavage 10 days; format: in vivo
Method: Measuring the maximum tolerated dose of Sigma receptor agonists. Male Sprague-Dawley rats (2-3 per dose) were treated by oral gavage with 6, 18, 54, 108, 135 or 150 mg/kg as estimated from in vitro functional assays and estimates of human intake when used as an antitussive. Rats received a single daily dose for 10 days. Weight, water intake, and food intake were measured daily, and rats were assessed for somnolence, activity, sensitivity to touch, and taste aversion. At the conclusion of the study, rats were humanely euthanized and brain tissue was collected and flash frozen.

[2] = system: rat blood; experiment: Clotting (streak) assay of thrombotic potential
Method: Clotting assays. Thrombotic potential was assessed with trunk blood from donor rats using a protocol modified from Kim et al. (Kim et al., 2010). Oxeladin was compared to whole blood with or without the anticoagulant benzamidine and several other S1R ligands at doses 10× greater than those that stimulate the release of BDNF (Dalwadi et al., 2022; Dalwadi et al., 2017). Blood was rapidly collected into chilled, pre-weighed plastic tubes containing a known quality of EDTA disodium salt (>3.7 mM) electrostatically-coated onto the tube wall. Blood was prevented from coagulating by gently swirling the chilled EDTA-coated tube. The tube was weighed and the volume of collected blood calculated in order to compute the exact concentration of EDTA in the uncoagulated blood sample allowing us to determine which concentration of calcium to add back into the blood to initiate coagulation. Uncoagulated blood samples were stored chilled. The following was be dispensed into NUNC™ MICROWELL™ MiniTrays: 8 μL/well of normal saline containing a concentration of calcium 1.2 mM higher than that of the concentration of EDTA in the blood sample, 1 μL/well of oxeladin, 3 mM benzamidine anticoagulant positive control, or untreated or vehicle negative controls, and 1 μL/well of (EDTA-treated) uncoagulated rat blood. Plates were tilted at a 45° angle at 5, 15, 30, 45 and 60 minutes to observe coagulation (i.e., no streaking) and compared to the controls. Each triplicate well was scored by a treatment-blinded observer as Yes (coagulation, no streaking) or No (no coagulation, streaking). The experiment was repeated with two separate donor rats.
Referring to FIG. 5, the effect on thrombotic activity of test drugs, benzamidine anticoagulant positive control, or untreated or vehicle negative controls on whole blood from donor rats was assessed by tilting treated blood samples at a […] to observe coagulation (i.e., no streaking) between […] (top panel). Blood coagulation was represented by a value between 1 (no streaking, coagulation) and 0 (streaking, less or no coagulation), and values were assigned for each test drug, benzamidine, and untreated and vehicle controls (bottom panel). Quantitative results from these clotting assays, including coagulation half-life, are summarized below in Table 5.

[3] = system: BDNF; experiment: BDNF western blot in ischemic penumbra after tMCAO; format: in vivo, rat; conditions: single dose 135 mg/kg 48 hours after tMCAO; P=0.02
Method: Rats were sacrificed under isoflurane anesthesia 2, 6, or 24 hours after dosing, and brains were removed to assess protein expression in the ischemic and contralateral cortex by immunoblotting. Brains were rapidly removed, chilled for 2 min in ice-cold saline, and sliced into 2 mm coronal slices with a brain matrix for rapid 2,3,5 triphenyltetrazolium chloride (TTC) staining. Sections were immersed in 1% TTC for 1 minute at room temperature to reveal the extent of the infarct. Cortical penumbra tissue was collected, snap frozen, and stored at −80° C. for subsequent western blotting. Protein was extracted from tissue using T-PER™ reagent with HALT protease inhibitor (Thermo-Pierce), and concentrations were determined with the PIERCE® BCA assay (Thermo-Pierce). Protein was separated on 4-20% SDS-PAGE gels (BioRad) and transferred to nitrocellulose. Blots were probed with primary antibodies for BDNF (Abcam ab226842; 1:1000) and goat anti-rabbit-HRP secondary (Thermo 32260; 1:10,000). Bands were visualized by ECL with PIERCE® SUPERSIGNAL® West Dura Femto (Thermo-Pierce) reagent using a UVP EpiChemi3. Density was assessed with Image J and normalized to β-actin (Thermo MA1-91399; 1:1000).

For `CCN(CC)CCOCCOC(=O)C(CC)(CC)c1ccccc1` [Oxeladin], the “mortality or overt toxicity” value ([1]; 6-150 mg/kg daily oral gavage, 10 days, male rats) was “no mortality or overt toxicity observed”, the well-tolerated dose ([1]; rat, in vivo, po) was ≥ 150 mg/kg and the “effect on thrombosis in blood” value [2] was “do not alter thrombosis”. The “ratio of mature 17 kDa BDNF to 42 kDa pro-BDNF in the ischemic penumbra” value [3] was “significantly increased”.
